Experimental data reported in US4394503A, “Cephalosporin derivatives” (priority 1981, dated 1983).
Values after ≈ are worked out from the molar mass of the structure shown. Like-named read-outs stand apart in the source and are kept apart here.

How the values were obtained:
[1] = tested on: S. pneumoniae; experiment: In vitro activity against species of Streptococcus, Neisseria and Haemophilus (Table 3); type: cell-based; settings: read-out: Geometric Mean of MIC
[2] = tested on: Pr. morganii, Ent. cloacae and Ser. marcescens (Gn-II); experiment: In vitro antibacterial activity, two-fold agar dilution, Mueller-Hinton agar (Table 1), group Gn-II; type: cell-based, Pr. morganii (1), Ent. cloacae (2) and Ser. marcescens (2); settings: read-out: Geometric Mean of MIC
[3] = tested on: C. perfringens A9635; experiment: microbe, parasite or virus in culture; type: cell-based; settings: Clostridium perfringens, A9635, read-out: Minimum Inhibitory Concentration
[4] = tested on: Cephalothin-sensitive E. coli, Kl. pneumoniae and Pr. mirabilis (Gn-Ia); experiment: In vitro antibacterial activity, two-fold agar dilution, Mueller-Hinton agar (Table 1), group Gn-Ia; type: cell-based; settings: read-out: Geometric Mean of MIC
[5] = tested on: N. meningitidus; experiment: In vitro activity against species of Streptococcus, Neisseria and Haemophilus (Table 3); type: cell-based; settings: read-out: Geometric Mean of MIC
[6] = tested on: K. pneumoniae D11; experiment: MIC against selected test organisms (Table 2); type: cell-based; settings: Klebsiella pneumoniae
[7] = tested on: P. acnes A21933; experiment: MIC against selected test organisms (Table 2); type: cell-based; settings: Cutibacterium acnes
[8] = tested on: E. coli Juhl; experiment: MIC against selected test organisms (Table 2); type: cell-based; settings: Escherichia coli, read-out: Minimum Inhibitory Concentration
[9] = tested on: K. pneumoniae A 9867; experiment: MIC against selected test organisms (Table 2); type: cell-based; settings: Klebsiella pneumoniae
[10] = tested on: H. influenzae(AMP-R); experiment: In vitro activity against species of Streptococcus, Neisseria and Haemophilus (Table 3); type: cell-based; settings: Haemophilus influenzae, read-out: Geometric Mean of MIC
[11] = tested on: S. pyrogenes; experiment: as above; type: cell-based; settings: read-out: Geometric Mean of MIC
[12] = tested on: P. aeruginosa A15150; experiment: MIC against selected test organisms (Table 2); type: cell-based; settings: Pseudomonas aeruginosa
[13] = tested on: B. fragilis A22021; experiment: MIC against selected test organisms (Table 2); type: cell-based; settings: Bacteroides fragilis, A22021, read-out: Minimum Inhibitory Concentration
[14] = tested on: S. aureus Smith; experiment: Therapeutic efficacy in experimentally infected mice (Table 5); type: in vivo; settings: Staphylococcus aureus, im, 120 h; i.m., immediately after intraperitoneal challenge, 5 days observation; read-out: PD50 (median protective dose)
Experimental: (§1) The test compounds were administered intramuscularly immediately after the bacterial challenge.

[15] = tested on: P. aeruginosa A9843; experiment: as above; type: in vivo; settings: Pseudomonas aeruginosa, A9843, im, 120 h; i.m., immediately after intraperitoneal challenge, 5 days observation; read-out: PD50 (median protective dose)
Experimental: as §1

[16] = tested on: E. coli Juhl; experiment: as above; type: in vivo; settings: Escherichia coli, im, 120 h; i.m., immediately after intraperitoneal challenge, 5 days observation; read-out: PD50 (median protective dose)
Experimental: as §1

[17] = tested on: S. aureus BX-1633; experiment: as above; type: in vivo; settings: Staphylococcus aureus, BX1633, im, 120 h; i.m., immediately after intraperitoneal challenge, 5 days observation; read-out: PD50 (median protective dose)
Experimental: as §1

[18] = tested on: E. cloacae A9656; experiment: as above; type: in vivo; settings: Enterobacter cloacae, A9656, im, 120 h; i.m., immediately after intraperitoneal challenge, 5 days observation; read-out: PD50 (median protective dose)
Experimental: as §1

[19] = tested on: Pr. mirabilis A9900; experiment: as above; type: in vivo; settings: Proteus mirabilis, A9900, im, 120 h; i.m., immediately after intraperitoneal challenge, 5 days observation; read-out: PD50 (median protective dose)
Experimental: as §1

[20] = tested on: H. influenzae(AMP-S); experiment: In vitro activity against species of Streptococcus, Neisseria and Haemophilus (Table 3); type: cell-based; settings: Haemophilus influenzae, read-out: Geometric Mean of MIC
[21] = tested on: B. fragilis A20928-1; experiment: MIC against selected test organisms (Table 2); type: cell-based; settings: Bacteroides fragilis
[22] = tested on: B. fragilis A21900; experiment: MIC against selected test organisms (Table 2); type: cell-based; settings: Bacteroides fragilis
[23] = tested on: C. difficile A21675; experiment: MIC against selected test organisms (Table 2); type: cell-based; settings: Clostridioides difficile
[24] = tested on: P. morganii A9553; experiment: MIC against selected test organisms (Table 2); type: cell-based; settings: Morganella morganii
[25] = tested on: B. fragilis A22695; experiment: MIC against selected test organisms (Table 2); type: cell-based; settings: Bacteroides fragilis
[26] = tested on: P. mirabilis A9554; experiment: MIC against selected test organisms (Table 2); type: cell-based; settings: Proteus mirabilis
[27] = tested on: B. fragilis A22693; experiment: MIC against selected test organisms (Table 2); type: cell-based; settings: Bacteroides fragilis, A22693, read-out: Minimum Inhibitory Concentration
[28] = tested on: Penicillin-resistant S. aureus (Gp-Ib); experiment: In vitro antibacterial activity, two-fold agar dilution, Mueller-Hinton agar (Table 1), group Gp-Ib; type: cell-based
[29] = tested on: Cephalothin-resistant E. coli and Kl. pneumoniae (Gn-Ib); experiment: In vitro antibacterial activity, two-fold agar dilution, Mueller-Hinton agar (Table 1), group Gn-Ib; type: cell-based, E. coli (3) and Kl. pneumoniae (3); settings: Escherichia coli, read-out: Geometric Mean of MIC

CC(C)(O/N=C(\C(=O)N[C@@H]1C(=O)N2C(C(=O)[O-])=C(C[n+]3ccccc3)CS[C@H]12)c1csc(N)n1)C(=O)O [Ceftazidime, ceftazidime, reference compound]
MIC [1]: 0.4 µg/mL (≈ 0.732 µM) | MIC [2]: 2.7 µg/mL (≈ 4.94 µM) | MIC [3]: 6.3 µg/mL (≈ 11.5 µM) | MIC [4]: 0.066 µg/mL (≈ 0.121 µM) | MIC [5]: 0.1 µg/mL (≈ 0.183 µM) | MIC ([6]; D11, read-out: Minimum Inhibitory Concentration): 0.1 µg/mL (≈ 0.183 µM) | MIC ([7]; A21933, read-out: Minimum Inhibitory Concentration): 1.6 µg/mL (≈ 2.93 µM) | MIC [8]: 0.1 µg/mL (≈ 0.183 µM) | MIC ([9]; A9867, read-out: Minimum Inhibitory Concentration): 6.3 µg/mL (≈ 11.5 µM) | MIC [10]: 0.2 µg/mL (≈ 0.366 µM) | MIC [11]: 0.4 µg/mL (≈ 0.732 µM) | MIC ([12]; A15150, read-out: Minimum Inhibitory Concentration): 0.8 µg/mL (≈ 1.46 µM) | MIC [13]: 12.5 µg/mL (≈ 22.9 µM) | ED50 [14]: 10 mg/kg | ED50 [15]: 6 mg/kg | ED50 [16]: 0.11 mg/kg | ED50 [17]: 15 mg/kg | ED50 [18]: 3.5 mg/kg | ED50 [19]: 0.9 mg/kg | MIC [20]: 0.055 µg/mL (≈ 0.101 µM) | MIC ([21]; A209281, read-out: Minimum Inhibitory Concentration): 3.1 µg/mL (≈ 5.67 µM) | MIC ([22]; A21900, read-out: Minimum Inhibitory Concentration): 25 µg/mL (≈ 45.7 µM) | MIC ([23]; A21675, read-out: Minimum Inhibitory Concentration): > 100 µg/mL | MIC ([24]; A9553, read-out: Minimum Inhibitory Concentration): 3.1 µg/mL (≈ 5.67 µM) | MIC ([25]; A22695, read-out: Minimum Inhibitory Concentration): 50 µg/mL (≈ 91.5 µM) | MIC ([26]; A9554, read-out: Minimum Inhibitory Concentration): 0.05 µg/mL (≈ 0.0915 µM) | MIC [27]: 12.5 µg/mL (≈ 22.9 µM) | MIC ([28]; Staphylococcus aureus, read-out: Geometric Mean of MIC): 12.5 µg/mL (≈ 22.9 µM) | MIC [29]: 1.6 µg/mL (≈ 2.93 µM)

CSc1cc[n+](CC2=C(C(=O)[O-])N3C(=O)C(NC(=O)/C(=N\OC(C)(C)C(=O)O)c4csc(N)n4)C3SC2)cc1 (stereo not shown) [Example 2, 7-[(Z)-2-(2-Aminothiazol-4-yl)-2-(2-carboxyprop-2-oxyimino)-acetamido]-3-[(4-methylthiopyridinium)methyl]-3-cephem-4-carboxylate]
MIC ([1]; 5 strains): 0.2 µg/mL (≈ 0.337 µM) | MIC [2]: 1.5 µg/mL (≈ 2.53 µM) | MIC [3]: 12.5 µg/mL (≈ 21.1 µM) | MIC [4]: 0.066 µg/mL (≈ 0.111 µM) | MIC ([5]; 5 strains): 0.013 µg/mL (≈ 0.0219 µM) | MIC ([6]; D11, Gn-Ia, CET-S, read-out: Minimum Inhibitory Concentration): 0.1 µg/mL (≈ 0.169 µM) | MIC ([7]; A21933, Anaerobe, CLDM-R, read-out: Minimum Inhibitory Concentration): 1.6 µg/mL (≈ 2.7 µM) | MIC ([8]; Gn-Ia, CET-S): 0.1 µg/mL (≈ 0.169 µM) | MIC ([9]; A9867, Gn-Ib, CET-R, read-out: Minimum Inhibitory Concentration): 3.1 µg/mL (≈ 5.23 µM) | MIC ([10]; AMP-R, 3 strains): 0.4 µg/mL (≈ 0.675 µM) | MIC [11]: 0.2 µg/mL (≈ 0.337 µM) | MIC ([12]; A15150, Gn-III, CET-R, read-out: Minimum Inhibitory Concentration): 1.6 µg/mL (≈ 2.7 µM) | MIC [13]: 12.5 µg/mL (≈ 21.1 µM) | ED50 [14]: 5 mg/kg | ED50 [15]: 12 mg/kg | ED50 [16]: 0.16 mg/kg | ED50 [17]: 15 mg/kg | ED50 [18]: 3.5 mg/kg | ED50 [19]: 0.63 mg/kg | MIC ([20]; AMP-S, 7 strains): 0.1 µg/mL (≈ 0.169 µM) | MIC ([21]; A209281, Anaerobe, CET-S, read-out: Minimum Inhibitory Concentration): 3.1 µg/mL (≈ 5.23 µM) | MIC ([22]; A21900, Anaerobe, CET-S, read-out: Minimum Inhibitory Concentration): 6.3 µg/mL (≈ 10.6 µM) | MIC ([23]; A21675, Anaerobe, CLDM-R, read-out: Minimum Inhibitory Concentration): > 100 µg/mL | MIC ([24]; A9553, Gn-II, CET-R, read-out: Minimum Inhibitory Concentration): 1.6 µg/mL (≈ 2.7 µM) | MIC ([25]; A22695, Anaerobe, AMP-R, read-out: Minimum Inhibitory Concentration): 50 µg/mL (≈ 84.4 µM) | MIC ([26]; A9554, Gn-Ia, CET-S, read-out: Minimum Inhibitory Concentration): 0.05 µg/mL (≈ 0.0844 µM) | MIC [27]: 12.5 µg/mL (≈ 21.1 µM) | MIC ([28]; Staphylococcus aureus; read-out: Geometric Mean of MIC): 6.3 µg/mL (≈ 10.6 µM) | MIC [29]: 0.89 µg/mL (≈ 1.5 µM)
